# Ends that are not written are not given here.
# Legend:
# [1] = tested on: Rat prostate; assay: Intraprostatic infusion in rats, histology of the prostate gland after 72 hours; format: in vivo; details: 300 µl of 1 mg/mL in PBS pH 7.4 (1.0 mg/kg), sacrificed after 72 hours, H & E histology
# Protocol: Four rats were anesthetized with ether and given NTP peptide #7 by intraprostatic infusion. The injections consisted of 300 µl of NTP peptide #7 1 mg/mL in PBS pH 7.4. (1.0 mg/kg). Controls received injections of PBS alone or no injection. Rats were painlessly sacrificed after 72 hours. Prostate glands were dissected, fixed in 10% buffered formalin for 24 hours, embedded in paraffin, sectioned, and stained with H & E. For each animal the entire prostate gland was embedded and sectioned. All stained sections were examined histologically.
# Normal rats were injected in the prostate as in the above Example 2, except they were injected with NTP peptide #17. Rats were painlessly sacrificed after 72 hours and their prostate glands were examined as in Example 2.
# [2] = tested on: muscle tissue, subcutaneous connective tissue, and dermis; assay: Injection into skin, subcutaneous tissue and extremity skeletal muscle of normal rats, histopathology of injection foci at 24 hours; format: in vivo
# Excerpt: The individual foci of infiltration were excised, fixed in 10% formalin, embedded in paraffin, and stained and examined by standard histopathological methods.
# The controls received saline alone.
# Tissues were excised, fixed in 10% formalin, embedded in paraffin, and stained and examined by standard histopathological methods.
sequence,measurement,setting,value
"LSLPSSWDYG [NTP peptide #7, AD7c-NTP p335-343]",effect on tissue at sites of injection (prostate),[1],"necrosis of tissue at the injection sites with loss of glandular epithelium, flattening and atrophy"
same,effect on tissue at sites of injection,"[2]; injected in skin, subcutaneously and in extremity skeletal muscle, in saline, at 0.1-1 mg/mL, sacrificed at 24 hours",produced necrosis of tissue at the injection sites
same,spread of necrosis beyond the site of injection,"[2]; skin, subcutaneous and skeletal muscle injection, 24 hours",did not appear to spread far beyond the site of injection

# Reference: patent EP1847550A2, “Peptides effective in the treatment of tumors and other conditions requiring the removal or destruction of cells” (NYMOX CORPORATION, priority 2001, dated 2007)
